Assay results as given in ChEMBL document CHEMBL4308841, “Synthesis, in vitro antiproliferative activity, and kinase inhibitory effects of pyrazole-containing diarylureas and diarylamides” (Eur J Med Chem, 2018).

Legend:
[1] = tested on: HCC 2998; assay: Growth inhibition of human HCC2998 cells assessed as cell growth at 100 uM incubated for 48 hrs by sulforhodamine B assay relative to control; format: functional; conditions: HCC 2998, 48 h, read-out: Activity
[2] = tested on: HOP-62; assay: Growth inhibition of human HOP62 cells incubated for 48 hrs by sulforhodamine B assay; format: functional, cell-based; conditions: HOP-62, 48 h
[3] = tested on: COLO 205; assay: Growth inhibition of human COLO205 cells assessed as cell growth at 0.1 uM incubated for 48 hrs by sulforhodamine B assay relative to control; format: functional; conditions: COLO 205, 48 h, read-out: Activity
[4] = tested on: OVCAR-4; assay: Growth inhibition of human OVCAR4 cells assessed as cell growth at 0.01 uM incubated for 48 hrs by sulforhodamine B assay relative to control; format: functional; conditions: OVCAR-4, 48 h, read-out: Activity
[5] = tested on: PC-3; assay: Growth inhibition of human PC3 cells assessed as cell growth at 0.1 uM incubated for 48 hrs by sulforhodamine B assay relative to control; format: functional; conditions: PC-3, 48 h, read-out: Activity
[6] = tested on: SF-539; assay: Growth inhibition of human SF539 cells assessed as cell growth at 0.1 uM incubated for 48 hrs by sulforhodamine B assay relative to control; format: functional; conditions: SF-539, 48 h, read-out: Activity
[7] = tested on: MDA-MB-231; assay: Growth inhibition of human MDA-MB-231 cells assessed as cell growth at 100 uM incubated for 48 hrs by sulforhodamine B assay relative to control; format: functional; conditions: MDA-MB-231, 48 h, read-out: Activity
[8] = tested on: M14; assay: Growth inhibition of human M14 cells incubated for 48 hrs by sulforhodamine B assay; format: functional, cell-based; conditions: M14, 48 h
[9] = tested on: OVCAR-4; assay: Growth inhibition of human OVCAR4 cells assessed as cell growth at 0.1 uM incubated for 48 hrs by sulforhodamine B assay relative to control; format: functional; conditions: OVCAR-4, 48 h, read-out: Activity
[10] = tested on: A549; assay: Growth inhibition of human A549/ATCC cells assessed as cell growth at 1 uM incubated for 48 hrs by sulforhodamine B assay relative to control; format: functional; conditions: A549, 48 h, read-out: Activity
[11] = tested on: SK-MEL-28; assay: Growth inhibition of human SK-MEL-28 cells assessed as cell growth at 0.01 uM incubated for 48 hrs by sulforhodamine B assay relative to control; format: functional; conditions: SK-MEL-28, 48 h, read-out: Activity
[12] = tested on: HT-29; assay: Growth inhibition of human HT-29 cells assessed as cell growth at 10 uM incubated for 48 hrs by sulforhodamine B assay relative to control; format: functional; conditions: HT-29, 48 h, read-out: Activity
[13] = tested on: U-251; assay: Growth inhibition of human U251 cells assessed as cell growth at 100 uM incubated for 48 hrs by sulforhodamine B assay relative to control; format: functional; conditions: U-251, 48 h, read-out: Activity
[14] = tested on: CAKI-1; assay: Growth inhibition of human Caki1 cells assessed as cell growth at 0.1 uM incubated for 48 hrs by sulforhodamine B assay relative to control; format: functional; conditions: CAKI-1, 48 h, read-out: Activity
[15] = tested on: NCI-H23; assay: Growth inhibition of human NCI-H23 cells incubated for 48 hrs by sulforhodamine B assay; format: functional, cell-based; conditions: NCI-H23, 48 h
[16] = tested on: NCI-H322M; assay: Growth inhibition of human NCI-H322M cells assessed as cell growth at 100 uM incubated for 48 hrs by sulforhodamine B assay relative to control; format: functional; conditions: read-out: Activity
[17] = tested on: SK-MEL-5; assay: Growth inhibition of human SK-MEL-5 cells incubated for 48 hrs by sulforhodamine B assay; format: functional, cell-based; conditions: SK-MEL-5, 48 h
[18] = tested on: NCI-H522; assay: Growth inhibition of human NCI-H522 cells assessed as cell growth at 0.1 uM incubated for 48 hrs by sulforhodamine B assay relative to control; format: functional; conditions: NCI-H522, 48 h, read-out: Activity
[19] = tested on: CCRF-CEM; assay: Growth inhibition of human CCRF-CEM cells incubated for 48 hrs by sulforhodamine B assay; format: functional, cell-based
[20] = tested on: SF-539; assay: Growth inhibition of human SF539 cells assessed as cell growth at 0.01 uM incubated for 48 hrs by sulforhodamine B assay relative to control; format: functional; conditions: SF-539, 48 h, read-out: Activity
[21] = tested on: UACC-257; assay: Growth inhibition of human UACC257 cells assessed as cell growth at 0.1 uM incubated for 48 hrs by sulforhodamine B assay relative to control; format: functional; conditions: UACC-257, 48 h, read-out: Activity
[22] = tested on: T47D; assay: Growth inhibition of human T47D cells assessed as cell growth at 1 uM incubated for 48 hrs by sulforhodamine B assay relative to control; format: functional; conditions: read-out: Activity
[23] = tested on: Malme-3M; assay: Growth inhibition of human MALME-3M cells assessed as cell growth at 0.1 uM incubated for 48 hrs by sulforhodamine B assay relative to control; format: functional; conditions: read-out: Activity
[24] = tested on: HCC 2998; assay: Growth inhibition of human HCC2998 cells assessed as cell growth at 1 uM incubated for 48 hrs by sulforhodamine B assay relative to control; format: functional; conditions: HCC 2998, 48 h, read-out: Activity
[25] = tested on: SW-620; assay: Growth inhibition of human SW620 cells incubated for 48 hrs by sulforhodamine B assay; format: functional, cell-based; conditions: SW-620, 48 h
[26] = tested on: OVCAR-5; assay: Growth inhibition of human OVCAR5 cells assessed as cell growth at 0.1 uM incubated for 48 hrs by sulforhodamine B assay relative to control; format: functional; conditions: OVCAR-5, 48 h, read-out: Activity
[27] = tested on: HT-29; assay: Growth inhibition of human HT-29 cells assessed as cell growth at 0.1 uM incubated for 48 hrs by sulforhodamine B assay relative to control; format: functional; conditions: HT-29, 48 h, read-out: Activity
[28] = tested on: DU-145; assay: Growth inhibition of human DU145 cells assessed as cell growth at 100 uM incubated for 48 hrs by sulforhodamine B assay relative to control; format: functional; conditions: DU-145, 48 h, read-out: Activity
[29] = tested on: NCI-H460; assay: Growth inhibition of human NCI-H460 cells incubated for 48 hrs by sulforhodamine B assay; format: functional, cell-based; conditions: NCI-H460, 48 h
[30] = read-out: LC50 (the source's name)
[31] = read-out: pLC50 (the source's name) (converted)

O=C(Nc1cccc(-n2cc(-c3ccncc3)c(-c3cc(O)cc(Cl)c3)n2)c1)Nc1ccc(Cl)c(C(F)(F)F)c1
growth at 100 µM [1]: -88%
GI50 ([2]; read-out: GI50): 3.06 µM
CC50 [2, 30]: > 100 µM
TGI ([2]; read-out: TGI): 13.4 µM
GI50 ([2]; read-out: pGI50 (converted)): 3.09 µM
CC50 [2, 31]: > 100 µM
TGI ([2]; read-out: pTGI (converted)): 13.5 µM
growth at 0.1 µM [3]: 95%
growth at 0.01 µM [4]: 99%
growth at 0.1 µM [5]: 98%
growth at 0.1 µM [6]: 95%
growth at 100 µM [7]: -38%
GI50 ([8]; read-out: GI50): 1.72 µM
CC50 [8, 30]: 55.8 µM
TGI ([8]; read-out: TGI): 38.8 µM
GI50 ([8]; read-out: pGI50 (converted)): 1.7 µM
CC50 [8, 31]: 8.71 µM
TGI ([8]; read-out: pTGI (converted)): 3.89 µM
growth at 0.1 µM [9]: 105%
growth at 1 µM [10]: 81%
growth at 0.01 µM [11]: 97%
growth at 10 µM [12]: 35.3%
growth at 100 µM [13]: -84%
growth at 0.1 µM [14]: 103%
GI50 ([15]; read-out: GI50): 2.58 µM
LC50 ([15]; read-out: LC50): 45.1 µM
TGI ([15]; read-out: TGI): 74 µM
GI50 ([15]; read-out: pGI50 (converted)): 2.57 µM
LC50 ([15]; read-out: pLC50 (converted)): 45.7 µM
TGI ([15]; read-out: pTGI (converted)): 7.41 µM
growth at 100 µM [16]: -81%
GI50 ([17]; read-out: GI50): 1.59 µM
CC50 [17, 30]: 51.5 µM
TGI ([17]; read-out: TGI): 32.3 µM
GI50 ([17]; read-out: pGI50 (converted)): 1.7 µM
CC50 [17, 31]: 6.17 µM
TGI ([17]; read-out: pTGI (converted)): 3.24 µM
growth at 0.1 µM [18]: 83%
GI50 ([19]; read-out: GI50): 2.73 µM
CC50 [19, 30]: > 100 µM
TGI ([19]; read-out: TGI): 85 µM
GI50 ([19]; read-out: pGI50 (converted)): 2.75 µM
CC50 [19, 31]: > 100 µM
TGI ([19]; read-out: pTGI (converted)): 8.91 µM
growth at 0.01 µM [20]: 104%
growth at 0.1 µM [21]: 91%
growth at 1 µM [22]: 53%
growth at 0.1 µM [23]: 81%
growth at 1 µM [24]: 106%
GI50 ([25]; read-out: GI50): 3.29 µM
LC50 ([25]; read-out: LC50): 58 µM
TGI ([25]; read-out: TGI): 10.7 µM
GI50 ([25]; read-out: pGI50 (converted)): 3.31 µM
LC50 ([25]; read-out: pLC50 (converted)): 56.2 µM
TGI ([25]; read-out: pTGI (converted)): 10.7 µM
growth at 0.1 µM [26]: 91%
growth at 0.1 µM [27]: 93%
growth at 100 µM [28]: -68%
GI50 ([29]; read-out: GI50): 2.59 µM
CC50 [29, 30]: 85.8 µM
TGI ([29]; read-out: TGI): 73.7 µM
GI50 ([29]; read-out: pGI50 (converted)): 2.57 µM
CC50 [29, 31]: 87.1 µM
TGI ([29]; read-out: pTGI (converted)): 7.41 µM

COc1cc(Cl)cc(-c2nn(-c3cccc(NC(=O)Nc4ccc(Cl)c(Cl)c4)c3)cc2-c2ccncc2)c1
growth at 100 µM [1]: -7%
GI50 ([2]; read-out: GI50): 3.36 µM
CC50 [2, 30]: > 100 µM
TGI ([2]; read-out: TGI): 35.1 µM
GI50 ([2]; read-out: pGI50 (converted)): 3.39 µM
CC50 [2, 31]: > 100 µM
TGI ([2]; read-out: pTGI (converted)): 35.5 µM
growth at 0.1 µM [3]: 103%
growth at 0.01 µM [4]: 93%
growth at 0.1 µM [5]: 98%
growth at 0.1 µM [6]: 92%
growth at 100 µM [7]: -70%
GI50 ([8]; read-out: GI50): 2.52 µM
CC50 [8, 30]: > 100 µM
TGI ([8]; read-out: TGI): 10 µM
GI50 ([8]; read-out: pGI50 (converted)): 3.16 µM
CC50 [8, 31]: > 100 µM
TGI ([8]; read-out: pTGI (converted)): 11 µM
growth at 0.1 µM [9]: 95%
growth at 1 µM [10]: 82%
growth at 0.01 µM [11]: 101%
growth at 10 µM [12]: 7.39%
growth at 100 µM [13]: -68%
growth at 0.1 µM [14]: 102%
LC50 ([15]; read-out: LC50): > 100 µM
GI50 ([15]; read-out: pGI50 (converted)): 2.63 µM
LC50 ([15]; read-out: pLC50 (converted)): > 100 µM
TGI ([15]; read-out: pTGI (converted)): 9.12 µM
growth at 100 µM [16]: 3%
GI50 ([17]; read-out: GI50): 1.52 µM
CC50 [17, 30]: 6.23 µM
TGI ([17]; read-out: TGI): 31.7 µM
GI50 ([17]; read-out: pGI50 (converted)): 1.62 µM
CC50 [17, 31]: 6.17 µM
TGI ([17]; read-out: pTGI (converted)): 3.16 µM
growth at 0.1 µM [18]: 53%
GI50 ([19]; read-out: GI50): 2 µM
CC50 [19, 30]: > 100 µM
TGI ([19]; read-out: TGI): 50 µM
GI50 ([19]; read-out: pGI50 (converted)): 2 µM
CC50 [19, 31]: > 100 µM
TGI ([19]; read-out: pTGI (converted)): 6.03 µM
growth at 0.01 µM [20]: 100%
growth at 0.1 µM [21]: 96%
growth at 1 µM [22]: 87%
growth at 0.1 µM [23]: 50%
growth at 1 µM [24]: 91%
GI50 ([25]; read-out: GI50): 3.43 µM
LC50 ([25]; read-out: LC50): > 100 µM
TGI ([25]; read-out: TGI): > 100 µM
GI50 ([25]; read-out: pGI50 (converted)): 3.39 µM
LC50 ([25]; read-out: pLC50 (converted)): > 100 µM
TGI ([25]; read-out: pTGI (converted)): > 100 µM
growth at 0.1 µM [26]: 59%
growth at 0.1 µM [27]: 91%
growth at 100 µM [28]: 13%
GI50 ([29]; read-out: GI50): 2.27 µM
CC50 [29, 30]: > 100 µM
TGI ([29]; read-out: TGI): 13.9 µM
GI50 ([29]; read-out: pGI50 (converted)): 2.29 µM
CC50 [29, 31]: > 100 µM
TGI ([29]; read-out: pTGI (converted)): 13.8 µM
